The source of these data is article PMC10778824, “New Chalcone Derivatives Containing 2,4-Dichlorobenzenesulfonamide Moiety with Anticancer and Antioxidant Properties” (International Journal of Molecular Sciences, 2023).

SMILES strings stand for the structures.

The test system of one test is caspase-8. Description: Caspase-Glo 8 activity assay in AGS cells. Type of test: cell-based, human. To be noted: 24 h, relative to DMSO control. Here is the method: (§1) The AGS cells were seeded in a 96-well plate (5 × 10^3 cells/well) and treated with compound 5 at concentrations of 1, 5, 7, and 10 µg/mL for 24 h; oxaliplatin at the concentration of 20 µg/mL; and DMSO (1%, v/v). The cells were then treated with reagents from Caspase-Glo 8 Assay or Caspase-Glo 9 Assay (Promega, Madison, WI, USA) and measured with the luminometer Glomax Multi + Detection System (Promega, Madison, WI, USA). The experiments were performed in two independent repeats in three repetitions.

A further test has as its system caspase-9. Description: Caspase-Glo 9 activity assay in AGS cells. The format is cell-based, human. The note with it: 24 h, relative to DMSO control. The procedure: as §1
The next test concerns AGS cells. Description: Microscopic observation of AGS cells. Type of test: cell-based, human. The note with it: microscopy, 200×; compound 5 at 1, 5, 10 µg/mL; oxaliplatin 20 and 40 µg/mL. The procedure:
These changes were clearly visible when higher concentrations of the compound were used in the study.
Figure 2 The effect of chalcone derivative 5 on AGS cells. The cells were treated with DMSO (0.2%, v/v) (A) and the compound at concentrations of 1 (B), 5 (C), and 10 (D) µg/mL and oxaliplatin at 20 (E) and 40 (F) µg/mL. The images were taken at 200× magnification.

Another test addresses T1, neutrophil elastase (Sus scrofa, UniProt P00772).
T1 construct: purchased Sigma Chemical Co. (St. Louis, MO, USA)
The experiment in a line: Elastase assay (SANA substrate). The format is biochemical, porcine. To be noted: Tris-HCl pH 8.0, SANA substrate; read-out: neutrophil elastase inhibition IC50 (converted). The procedure: The elastase analysis was performed according to the spectrophotometric method with oleanolic acid as a reference. The reaction mixture (Tris-HCl buffer (pH 8.0), 1.0 μg/mL porcine pancreatic elastase, and different concentrations of chalcone derivatives was preincubated at room temperature for 15 min. Afterwards, the addition of the substrate—SANA—started the reaction. Product formation changes were analyzed at λ = 410 nm for 20 min every 20 s (Epoch, BioTek Instruments, Santa Clara, CA, USA). The control was composed of Tris-HCl buffer (pH 8.0), an appropriate concentration of the chalcone derivative, and SANA.

Test [1] concerns Staphylococcus epidermidis ATCC14990. The experiment in a line: MIC determination. Type of test: cell-based. The note with it: 37 °C, 48 h. Summed up: (§2)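 Twofold dilution series (500 to 0.006 µg/mL final) of DMSO/water sample solutions are incubated with the bacteria at 37 °C for 48 h. Campylobacter conditions follow those for H. pylori, and L. monocytogenes those for B. subtilis.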

Test [2] concerns Staphylococcus aureus ATCC6538. Description: MIC determination. Type of test: cell-based. The note with it: 37 °C, 48 h. Summed up:
as §2

Test [3] deals with Listeria monocytogenes PCM2191. Description: MIC determination. Type of test: cell-based. To be noted: 37 °C, 48 h. Summed up: as §2
The subject of test [4] is Enterococcus faecalis ATCC51299. The experiment in a line: MIC determination. The format is cell-based. The note with it: 37 °C, 48 h. In short, it runs like this:
as §2

Test [5] deals with Escherichia coli ATCC8739. Description: MIC determination. Type of test: cell-based. The note with it: 37 °C, 48 h. Summed up:
as §2

Test [6] deals with Salmonella enterica ATCC13076. Description: MIC determination. The format is cell-based. The note with it: 37 °C, 48 h. Summed up: as §2
A further test has as its system Campylobacter jejuni ZMF. Description: MIC determination. To be noted: 37 °C, 48 h. The format is cell-based. Summed up: as §2
In test [7] the test system is Bacillus cereus PCM 1948,2019 (ATCC11778). The experiment in a line: MIC determination. Type of test: cell-based. To be noted: 37 °C, 48 h. In short, it runs like this:
as §2

Test [8] has as its system Klebsiella pneumoniae ATCC13883. Description: MIC determination. Type of test: cell-based. To be noted: 37 °C, 48 h. In short, it runs like this: as §2
Another test deals with Campylobacter coli ZMF. The experiment in a line: MIC determination. To be noted: 37 °C, 48 h. Type of test: cell-based. In short, it runs like this:
as §2

In test [9] the test system is Helicobacter pylori ATCC43504. Description: MIC determination. Type of test: cell-based. The note with it: 37 °C, 48 h. Summed up: as §2

T1 sequence (P00772 27-266): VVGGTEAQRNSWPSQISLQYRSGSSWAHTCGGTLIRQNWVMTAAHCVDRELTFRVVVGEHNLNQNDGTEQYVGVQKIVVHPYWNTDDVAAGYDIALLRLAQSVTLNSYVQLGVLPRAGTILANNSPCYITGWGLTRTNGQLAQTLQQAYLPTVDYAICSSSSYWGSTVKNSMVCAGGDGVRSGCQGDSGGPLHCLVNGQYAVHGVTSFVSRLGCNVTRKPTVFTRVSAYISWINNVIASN

For orientation: IC50 means the midpoint of a concentration-inhibition curve. What is called MIC is the smallest concentration in the dilution series that meets the test's criterion for growth inhibition. A low value points to inhibition by little substance. Take `Cc1cc(S(=O)(=O)Nc2ccc(C(=O)/C=C/c3ccc(Br)cc3)cc2)c(Cl)cc1Cl` [Compound 5, (E)-N-{4-[3-(4-Bromophenyl)acryloyl]phenyl}-2,4-Dichloro-5-Methylbenzenesulfonamide]: the caspase-8 relative activity turned out to be 1.16 ± 0.15 in the test with caspase-8 (1 µg/mL), 3.53 ± 0.33 in the test on caspase-8 (5 µg/mL), 3.39 ± 0.28 in the test with caspase-8 (7 µg/mL) and 2.99 ± 0.20 with caspase-8 (10 µg/mL). For the same molecule, the caspase-9 relative activity in the test on caspase-9 (1 µg/mL) was 0.85 ± 0.03; in the test with caspase-9 (5 µg/mL), 4.54 ± 0.20; in the test with caspase-9 (7 µg/mL) it was 4.50 ± 0.14; in the test with caspase-9 (10 µg/mL), 3.81 ± 0.32. Further, the “morphological changes of AGS cells” value in the test on AGS cells is “cell shrinkage, membrane blebbing, and cell detachment”. Besides, the IC50 on neutrophil elastase was 121 µM. In addition, the MIC in test [1], in [2], in test [3], in test [4], in test [5] and in test [6] was > 500 µg/mL throughout. In addition, the MIC (against Campylobacter jejuni ZMF; in test [7]; in [8]; in the test with Campylobacter coli ZMF; in test [9]) was > 500 µg/mL in each case.
